# Experimental data: patent US20250197641A1, “OPTICAL ABSORBENT” (priority 2023, published 2025)
# What was measured:
# Assay type in all cases: physicochemical
# [1] = Solubility of the absorbent in methylene chloride; settings: room temperature (about 25° C.)
# Protocol: The solubility of the absorbent was evaluated. Solubility was determined based on the following criteria by evaluating the solubility of the absorbent in the solvent (MC, Methylene Chloride) at room temperature (about 25° C.).
# [2] = Pyrolysis temperature (Td 5%) analysis by TGA; settings: 25-800° C., 10° C./min, N2
# Protocol: The Td 5% is a value obtained through TGA (Thermogravimetric Analysis) analysis. It is the value (Td 5%) at a weight loss of 5% confirmed under the conditions of a temperature range of 25° C. to 800° C., a temperature increase rate of 10° C./min, and a nitrogen (N2) atmosphere of 60 cm^3/min.
# Thermogravimetric Analysis (TGA) of the chemical compound was performed by using Scinco's TGA N-1000 equipment. The analysis was performed by using approximately 3 mg of sample (chemical compound) and the analysis was conducted under conditions of a temperature range of 25° C. to 800° C., a temperature increase rate of 10° C./min, and nitrogen (N2) atmosphere of 60 cm^3/min. The value at […] (Td 5%) was used as the Td decomposition temperature.
# [3] = Absorption spectra of absorption membrane before and after high temperature/high humidity evaluation (Test Example 2); settings: 85% relative humidity, 120 hours
# Source text: FIGS. 4 to 6 are the absorption spectra of the absorption membranes prepared in Test Example 1 using the absorbents of Embodiments 1 to 3, respectively. FIGS. 7 to 9 are the absorption spectrum of the absorption membrane prepared in Test Example using the absorbents of Comparative Examples 1 to 3, respectively. In the FIGS., the spectra indicated before reliability is the result immediately after preparing the absorption membrane, and the spectra indicated after reliability is the result after high temperature/high humidity evaluation was performed on the absorption membrane. The high temperature/high humidity evaluation is an evaluation where the absorption membrane is maintained at a temperature of 85° C. under a relative humidity of 85% for 120 hours. In Tables 4 and 5, Af is the transmittance at the absorption maximum wavelength of the absorption membrane maintained at 85° C. under 85% relative humidity for 120 hours and λf is the absorption maximum wavelength for after case. Ai is the transmittance at the absorption maximum wavelength of the absorption membrane before being maintained at 85° C. under 85% relative humidity for 120 hours and λi is the absorption maximum wavelength for before case. In Tables 4 and 5, ΔA is a value calculated as 100×(Af−Ai)/Ai, and Δλ is a value calculated as 100×(λf−λi)λi.
# [4] = Transmittance of absorption membrane before and after reliability evaluation (Test Example 1)
# Protocol: The transmittance spectrum was measured using a spectrophotometer (Manufacturer: Perkinelmer, Product Name: Lambda 750 Spectrophotometer) on a specimen obtained by cutting the measurement object (e.g., an absorption membrane) so that the width and height were 10 mm and 10 mm, respectively. The transmittance spectrum was measured for each wavelength according to the equipment manual. The specimen was placed on a straight line between a measuring beam of the spectrophotometer and a detector and the transmittance spectrum was confirmed by setting the incident angle of the measuring beam to 0°. The incident angle of 0° is a direction substantially parallel to the surface normal direction of the specimen. The average transmittance within a certain wavelength range in the transmittance spectrum is the result of measuring the transmittance at each wavelength while increasing the wavelength by 1 nm starting from the shortest wavelength in the wavelength range, and then calculating the arithmetic average of the measured transmittances. The maximum transmittance is the maximum transmittance among the transmittances measured while increasing the wavelength by 1 nm and the minimum transmittance is the minimum transmittance among the transmittances measured while increasing the wavelength by 1 nm. For example, the average transmittance within the wavelength range of 350 nm to 360 nm is the arithmetic mean of the transmittance measured at the wavelength of 350 nm, 351 nm, 352 nm, 353 nm, 354 nm, 355 nm, 356 nm, 357 nm, 358 nm, 359 nm, and 360 nm. The maximum transmittance within the wavelength range of 350 nm to 360 nm is the highest transmittance measured at wavelengths of 350 nm, 351 nm, 352 nm, 353 nm, 354 nm, 355 nm, 356 nm, 357 nm, 358 nm, 359 nm and 360 nm and the minimum transmittance within the wavelength range of 350 nm to 360 nm is the lowest transmittance among the transmittances measured at wavelengths of 350 nm, 351 nm, 352 nm, 353 nm, 354 nm, 355 nm, 356 nm, 357 nm, 358 nm, 359 nm, and 360 nm.
# A coating solution was prepared by mixing silicone resin (Dow Chemical, RSN-0217), absorbent, and solvent (cyclohexanone) as resin components. The mixing ratio of the resin component, absorbent, and solvent was set to be 69.3:0.99:29.7 in weight ratio (resin:absorbent:solvent).
# The coating solution was coated on a transparent substrate (a glass substrate manufactured by SCHOTT) and maintained at 140° C. for about 2 hours to form an absorption membrane with a thickness of about 6 μm.
# Tables 2 and 3 below summarize the transmittance of the absorption membrane before and after reliability evaluation in the ultraviolet and near-infrared regions. The reliability evaluation is an evaluation of maintaining the absorption membrane at 85° C. and under 85% relative humidity condition for 120 hours. In Table 2, B refers to the result before performing the reliability evaluation and A refers to the result after performing the reliability evaluation. Additionally, in Table 2, λmax means the transmittance at the absorption maximum.
# In Tables 2 and 3, Δ is the rate of change (%) of each characteristic before and after the reliability evaluation, calculated as 100×[…]/B, where […], B is the value indicated by B in Table 2. In Table 2, Tmax refers to the highest transmittance within the corresponding wavelength region, Tave refers to the average transmittance within the corresponding wavelength region, and Tmin refers to the minimum transmittance within the corresponding wavelength region.
# [5] = Absorption maximum measurement; settings: chloroform, about 10^-5 M
# Protocol: The maximum absorption was evaluated by a conventional method. Specifically, the sample was dissolved in chloroform solvent at a concentration of about 10^−5 M and then evaluated using measuring equipment (Agilent, Varian Cary 4000).
# [6] = absorption membrane after 85° C.
# [7] = absorption membrane before 85° C.
# [8] = change before/after 85° C., 85% RH, 120 hours
# [9] = silicone resin membrane about 6 μm, before reliability evaluation
# [10] = silicone resin membrane, after 85° C., 85% RH, 120 hours
structure (smiles),measurement,setting,value
CCCCN1\C(=C/C=C/C=C/C=C/C2=[N+](CCCC)c3ccc4ccccc4c3C2(C)C)C(C)(C)c2c1ccc1ccccc21 [Comparative Example 2],Solubility,[1],A (When solubility is 1 mass % or more)
same,Td 5%,[2],211 °C
same,ΔA = 100×(Af−Ai)/Ai,[3]; 85° C.,27.1%
same,Δλ = 100×(λf−λi)λi,[3]; 85° C.,13%
same,"Af, transmittance at the absorption maximum wavelength",[3]; [6],59.8%
same,"λf, absorption maximum wavelength",[3]; [6],785 nm
same,"Ai, transmittance at the absorption maximum wavelength",[3]; [7],47.1%
same,"λi, absorption maximum wavelength",[3]; [7],784 nm
same,"425~465 nm Tave, Δ",[4]; [8],0%
same,"425~465 nm Tmin, Δ",[4]; [8],−0.2%
same,"466~480 nm Tave, Δ",[4]; [8],0.1%
same,"466~480 nm Tmin, Δ",[4]; [8],−0.1%
same,"480~560 nm Tave, Δ",[4]; [8],−0.3%
same,"λmax Tmax (transmittance at the absorption maximum), Δ",[4]; [8],12.8%
same,"425~465 nm Tave, B",[4]; [9],89.6%
same,"425~465 nm Tmin, B",[4]; [9],88.9%
same,"466~480 nm Tave, B",[4]; [9],90.2%
same,"466~480 nm Tmin, B",[4]; [9],89.8%
same,"480~560 nm Tave, B",[4]; [9],91.2%
same,"425~465 nm Tave, A",[4]; [10],89.6%
same,"425~465 nm Tmin, A",[4]; [10],88.7%
same,"466~480 nm Tave, A",[4]; [10],90.2%
same,"466~480 nm Tmin, A",[4]; [10],89.7%
same,"480~560 nm Tave, A",[4]; [10],90.9%
same,Maximum Absorption Wavelength,[5],801 nm
